This test addresses VLA-4 (Homo sapiens, UniProt P05556+P13612). Description: In vitro binding inhibition of 51Cr-labeled Jurkat cells to solid phase-bound CS-1 compound (SEQ ID NO:1). Particulars: for Relative Potency (prodrug compound): relative to SEQ ID NO:3 = 1, potency before the prodrug compound is enzymatically converted to an active form. Set-up: inflammatory cells that contain the VLA-4 receptor [Jurkat cells; host or cells: Jurkat (human T lymphoblastic line). In kind it is cell-based. The procedure:
Binding inhibition is measured here as a concentration of compound that inhibits one-half the binding between a standard number of Jurkat cells and a standard amount of CS-1 compound bound to the surface of a microtiter plate well. Those concentrations are conveniently expressed as IC50 values, smaller numbers indicating a lower concentration required to inhibit 50 percent binding and therefore greater potency. Further specifics of this assay are provided hereinafter.
Jurkat cells (ATCC TIB 152), a human T lymphoblastic line, labeled with ^51 chromium were used to assay in vitro binding inhibition provided by various compounds discussed herein.
The plates were prepared as follows: The 25-mer CS-1 compound (SEQ ID NO:1) dissolved at 0.5-1 μg/ml in a buffer of 0.1M NaHCO3 at pH 9.5 that also contained 10 μg/ml of bovine serum albumin (BSA) or a conjugate of the CS-1 compound linked to […] (CS-1-OVA) dissolved at 1-2.5 μg/ml in the same buffer was used as the substrate. Each well of the microtiter plates was coated with 50 μl of substrate or buffer alone for controls. The wells were permitted to dry out completely and were then rinsed twice with PBS at pH 7.4. Non-specific binding sites of each well were then blocked using 200 μl per well of RPMI/1 percent BSA for two hours at room temperature.
Jurkat cells (3-5×10^6 cells) were placed into a 15 ml Falcon™ round-bottom tube with a cap. The tube was centrifuged, and the extra medium was then removed.
Two hundred microliters of a ^51 Cr labeling solution were added to the centrifuged cells and maintained in contact with the cells for 90-120 minutes in a warm room. […] Longer contact times provide a greater amount of labeling but lower cell viability.
The labeled cells are washed with (i) complete medium, (ii) 1 mM EDTA/PBS and then (iii) RPM1/1 percent BSA free of serum components. The cells are centrifuged after each washing. The cells are finally resuspended in serum-free RPMI/1 percent BSA at a concentration of 1×10^6 viable cells/ml, which provides a concentration that is diluted by one-half in the assay.
Inhibitor compounds are prepared as stock solutions at 20 mg/ml in DMSO in 1.5 ml cryogenic screwcap vials, and were stored at -70° C. Using Flow™ round-bottom or V-bottom microtiter plates, the inhibitor compounds were prepared at twice the assay concentration in RPMI/1 percent BSA at 60 μl/well.
Four initial dilutions were typically used.
The ^51 Cr-labeled cells ([…] at 60 μl/well) were then admixed with the diluted compound solutions. The admixtures were maintained at room temperature (about 22° C.) for 30 minutes.
One hundred microliters of each inhibitor compound/cell admixture were transferred to the substrate-coated wells. This was done in triplicate for each dilution. The resulting plates were incubated for 30 minutes at 37° C. and then washed gently three times with RPMI/1 percent BSA at 200 μl/well. Binding was observed microscopically, particularly after the second wash.
The bound cells were then lysed by the addition of a 0.5 percent solution of sodium dodecylsulfate in water at 100 μl/well. The resulting solutions were then processed for counting and calculation of IC50 values following usual procedures.
The data of Table 1 are normalized to the binding of SEQ ID NO: 3. […] Multiple assays for the same compound were averaged.

Where [1] appears, read: binding inhibition potency relative to standard compound of SEQ ID NO:3 = 1 (normalized IC50), about one-tenth or less assigned zero.

Like-named read-outs stand apart in the source and are kept apart here. Square brackets hold non-standard residues; d marks the D form. Peptide text beside a SMILES is read from it. * marks the point of attachment. NMeF = CN[C@@H](Cc1ccccc1)C(=O)O; Cha = N[C@@H](CC1CCCCC1)C(=O)O; NMeL = CN[C@@H](CC(C)C)C(=O)O; X19 = O=C(Cc1ccc(Br)cc1)*; Nle = CCCC[C@H](N)C(=O)O; Piperidide = C1CCN(*)CC1; Cbz = O=C(OCc1ccccc1)*; PhAc = O=C(Cc1ccccc1)*; X18 = O=C(c1cn[nH]c1)*; Inp = O=C(O)C1CCNCC1; Bz = O=C(c1ccccc1)*; OtBu = CC(C)(C)O*; Sar = CNCC(=O)O

The record followed here is patent US5770573A, “CS-1 peptidomimetics, compositions and methods of using the same” (Cytel Corporation, priority 1995, dated 1998).

Sequence of VLA-4 (P13612 34-1032): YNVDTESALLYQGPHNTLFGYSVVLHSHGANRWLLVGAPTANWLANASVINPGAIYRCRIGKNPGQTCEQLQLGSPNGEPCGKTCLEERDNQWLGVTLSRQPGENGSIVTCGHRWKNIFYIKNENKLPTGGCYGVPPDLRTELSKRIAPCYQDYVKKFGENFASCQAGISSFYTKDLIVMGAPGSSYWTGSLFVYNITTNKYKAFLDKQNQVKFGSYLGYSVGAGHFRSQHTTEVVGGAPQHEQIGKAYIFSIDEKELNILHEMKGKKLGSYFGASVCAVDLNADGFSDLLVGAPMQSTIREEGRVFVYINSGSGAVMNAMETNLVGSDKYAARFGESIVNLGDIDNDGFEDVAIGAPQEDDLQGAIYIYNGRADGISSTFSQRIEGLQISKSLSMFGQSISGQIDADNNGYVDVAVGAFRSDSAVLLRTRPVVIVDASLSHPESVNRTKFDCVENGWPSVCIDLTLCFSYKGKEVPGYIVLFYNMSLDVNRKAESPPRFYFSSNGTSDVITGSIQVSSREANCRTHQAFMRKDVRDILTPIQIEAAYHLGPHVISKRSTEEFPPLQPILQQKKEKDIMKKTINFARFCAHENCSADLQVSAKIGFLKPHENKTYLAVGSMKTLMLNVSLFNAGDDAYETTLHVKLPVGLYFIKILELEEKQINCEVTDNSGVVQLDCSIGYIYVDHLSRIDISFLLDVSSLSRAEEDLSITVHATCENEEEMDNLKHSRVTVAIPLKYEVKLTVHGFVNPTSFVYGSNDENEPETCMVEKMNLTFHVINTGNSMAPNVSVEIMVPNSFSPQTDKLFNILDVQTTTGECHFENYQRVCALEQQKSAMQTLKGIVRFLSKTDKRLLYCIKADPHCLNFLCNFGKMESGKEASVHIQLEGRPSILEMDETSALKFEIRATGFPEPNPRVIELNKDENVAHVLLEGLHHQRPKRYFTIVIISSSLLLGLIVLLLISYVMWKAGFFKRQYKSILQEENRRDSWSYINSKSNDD
Sequence of VLA-4 (P05556 21-798): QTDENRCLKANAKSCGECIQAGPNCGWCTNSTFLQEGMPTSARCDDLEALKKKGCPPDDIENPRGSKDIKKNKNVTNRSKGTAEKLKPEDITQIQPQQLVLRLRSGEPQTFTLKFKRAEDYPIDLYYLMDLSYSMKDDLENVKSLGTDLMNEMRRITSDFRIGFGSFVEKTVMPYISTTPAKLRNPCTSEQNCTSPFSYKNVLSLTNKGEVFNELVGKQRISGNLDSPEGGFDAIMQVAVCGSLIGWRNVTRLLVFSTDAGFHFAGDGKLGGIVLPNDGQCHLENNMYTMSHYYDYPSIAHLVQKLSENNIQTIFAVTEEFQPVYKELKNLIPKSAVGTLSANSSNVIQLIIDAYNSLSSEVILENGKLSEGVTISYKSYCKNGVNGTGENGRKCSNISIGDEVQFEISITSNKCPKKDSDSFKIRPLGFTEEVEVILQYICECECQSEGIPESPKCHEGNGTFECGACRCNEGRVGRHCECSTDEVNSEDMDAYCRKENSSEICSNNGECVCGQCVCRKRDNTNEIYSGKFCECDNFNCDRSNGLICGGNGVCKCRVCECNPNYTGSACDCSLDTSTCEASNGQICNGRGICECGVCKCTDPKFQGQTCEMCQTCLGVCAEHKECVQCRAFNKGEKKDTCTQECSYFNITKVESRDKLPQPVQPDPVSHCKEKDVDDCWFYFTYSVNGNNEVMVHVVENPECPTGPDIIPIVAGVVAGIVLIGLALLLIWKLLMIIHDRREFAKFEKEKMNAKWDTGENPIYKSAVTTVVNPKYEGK

Consider `CC(C)C[C@H](NC(=O)Cc1ccccc1)C(=O)N[C@@H](CC(=O)O)C(=O)N[C@@H](Cc1ccccc1)C(=O)N1CCC(CC(=O)O)CC1` [1190.02], for which the “Relative Potency” value under setting [1] is reported as 591.

As for `CCOC(=O)C[C@H](NC(=O)[C@H](CC(C)C)NC(=O)Cc1ccccc1)C(=O)N[C@@H](Cc1ccccc1)C(=O)N1CCC[C@@H]1C(N)=O` [1190.01] (PhAc-LD(OEt)F[dP]-NH2), the “Relative Potency (prodrug compound)” value was determined as 0.

`CC(C)C[C@H](NC(=O)Cc1ccccc1)C(=O)N[C@@H](CC(=O)O)C(=O)N[C@@H](Cc1ccccc1)C(=O)N1CCC(C(=O)O)CC1` [1111.04] (PhAc-LDF[Inp]-OH): under setting [1], the “Relative Potency” value was 836.

Take `NC(=O)[C@H]1CCCN1C(=O)[C@H](Cc1ccccc1)NC(=O)[C@H](CC(=O)O)NC(=O)[C@H](CS)NC(=O)Cc1ccccc1` [1042.22] (PhAc-CDF[dP]-NH2): the “Relative Potency” value under setting [1] worked out at 46.9.

Regarding `CC(C)[C@H](NC(=O)[C@H](CC(=O)O)NC(=O)[C@H](CC1CCCCC1)NC(=O)[C@@H](N)Cc1ccccc1)C(=O)N1CCC[C@@H]1C(N)=O` [896.33] (H-F[Cha]DV[dP]-NH2), the “Relative Potency” value is reported as 2.61.

As for `CC(C)C[C@H](NC(=O)c1cn[nH]c1)C(=O)N[C@@H](CC(=O)O)C(=O)N[C@@H](Cc1ccccc1)C(=O)N1CCC[C@@H]1C(N)=O` [951.03] (X18-LDF[dP]-NH2), the “Relative Potency” value is recorded as 28.2.

Regarding `CC(C)C[C@H](NC(=O)OCc1ccccc1)C(=O)N[C@@H](CC(=O)O)C(=O)N[C@@H](Cc1ccccc1)C(=O)N1CCC[C@@H]1C(N)=O` [1056.01] (Cbz-LDF[dP]-NH2), the “Relative Potency” value amounted to 34.4.

For the compound `CC(C)C[C@H](NC(=O)Cc1ccccc1)C(=O)N[C@@H](CC(=O)O)C(=O)N[C@H]1CCN(C2CCCCC2)C1=O` [1057.02], the “Relative Potency” value under setting [1] came to 6.57.

For the compound `CC(C)C[C@H](NC(=O)Cc1ccccc1)C(=O)N[C@@H](CC(=O)O)C(=O)N[C@H](C(=O)N1CCC[C@@H]1C(N)=O)C(C)C` [896.39], the “Relative Potency” value under setting [1] is given as 47.5.

Take `CC(C)C[C@H](N)C(=O)N[C@@H](CC(=O)O)C(=O)N[C@@H](Cc1ccccc1)C(N)=O` [926.31] (H-Leu-Asp-Phe-NH2): the “Relative Potency” value is 0.01.

With `CC(C)CN1C(=O)C(NC(=O)N[C@@H](CC(=O)O)C(=O)N[C@@H](Cc2ccccc2)C(=O)N2CCC[C@@H]2C(N)=O)Cc2ccccc21` (stereo partly shown) [1014.01], the “Relative Potency” value is reported as 1.22.

In the case of `CC(C)C[C@H](NC(=O)Cc1ccccc1)C(=O)N[C@@H](CC(=O)O)C(=O)N[C@@H](Cc1ccccc1)C(=O)N1CCN(CCC(=O)O)CC1` [1190.03], under setting [1], the “Relative Potency” value was determined as 998.

In the case of `CC(C)CN(CCCc1ccccc1)C(=O)N[C@@H](CC(=O)O)C(=O)N[C@@H](Cc1ccccc1)C(=O)N1CCCCC1` [1027.02], the “Relative Potency” value is recorded as 0.

Turning to `CC(C)C[C@H](NC(=O)Cc1ccccc1)C(=O)N[C@@H](CC(=O)O)C(=O)N[C@@H](Cc1ccc(O)cc1)C(=O)N1CCC[C@@H]1C(N)=O` [896.61] (PhAc-LDY[dP]-NH2), under setting [1], the “Relative Potency” value worked out at 612.

In the case of `CC(C)C[C@H](NC(=O)c1ccc2ccccc2c1)C(=O)N[C@@H](CC(=O)O)C(=O)N[C@H](C(=O)N1CCC[C@@H]1C(N)=O)C(C)C` [896.44], the “Relative Potency” value is 2.5.

In the case of `CC(C)[C@H](NC(=O)[C@H](CC(=O)O)NC(=O)[C@H](CC1CCCCC1)NC(=O)c1ccccc1)C(=O)N1CCC[C@@H]1C(N)=O` [896.34] (Bz-[Cha]DV[dP]-NH2), under setting [1], the “Relative Potency” value amounted to 6.73.

Take `CC(C)C[C@H](NC(=O)C(C)(C)C)C(=O)N[C@@H](CC(=O)O)C(=O)N[C@H](C(=O)N1CCC[C@H]1C(N)=O)C(C)C` [926.01]: the “Relative Potency” value stood at 3.29.

As for `CC[C@H](C)[C@H](N)C(=O)N[C@@H](CC(C)C)C(=O)N[C@@H](CC(=O)O)C(=O)N[C@H](C(=O)N1CCC[C@H]1C(N)=O)C(C)C` [886.03], the “Relative Potency” value turned out to be 1.55.

`COc1ccc(CCCC(=O)N[C@@H](CC(=O)O)C(=O)N[C@@H](Cc2ccccc2)C(=O)N2CCC[C@@H]2C(N)=O)cc1OC` [1056.02]: the “Relative Potency” value amounted to 0.

In the case of `CCCCCCCCCCCCCCCCCC(=O)OC1CCN(C(=O)[C@H](Cc2ccccc2)NC(=O)[C@H](CC(=O)O)NC(=O)[C@H](CC(C)C)NC(=O)Cc2ccccc2)CC1` [1068.05], the “Relative Potency (prodrug compound)” value is reported as “.63”.

As for `CC(C)C[C@H](NC(=O)Cc1ccccc1)C(=O)N[C@@H](CC(=O)O)C(=O)N(C)[C@@H](Cc1ccccc1)C(=O)N1CCC[C@@H]1C(N)=O` [1190.05] (PhAc-LD[NMeF][dP]-NH2), the “Relative Potency” value under setting [1] amounted to 0.

As for `CC(C)C[C@H](NC(=O)Cc1ccccc1)C(=O)N[C@@H](CC(=O)O)C(=O)N[C@@H](Cc1ccccc1)C(=O)N1CCS(=O)(=O)CC1` [1111.03], under setting [1], the “Relative Potency” value came to 1010.

With `CCCC[C@H](NC(=O)[C@H](CC(=O)O)NC(=O)[C@H](CC(C)C)NC(=O)[C@@H](N)[C@@H](C)CC)C(=O)N1CCC[C@H]1C(N)=O` [926.15] (H-ILD[Nle]P-NH2), the “Relative Potency” value is recorded as “.08”.

With `CC[C@H](C)[C@H](N)C(=O)N[C@@H](CC1CCCCC1)C(=O)N[C@@H](CC(=O)O)C(=O)N[C@H](C(=O)N1CCC[C@@H]1C(N)=O)C(C)C` [896.32] (H-I[Cha]DV[dP]-NH2), the “Relative Potency” value amounted to 1.41.

Turning to `CC(C)=CCCC(C)CC(=O)N[C@@H](CC(=O)O)C(=O)N[C@@H](Cc1ccccc1)C(=O)N1CCC[C@@H]1C(N)=O` (stereo partly shown) [1056.10], the “Relative Potency” value came to 0.

On to `CC(C)CN(CC(=O)Nc1ccccc1)C(=O)CN(CC(=O)O)C(=O)CNC(=O)C1CCCC1` [1032.01], for which the “Relative Potency” value is given as “.42”.

Turning to `CC(C)C[C@H](NC(=O)CCC1CCCCC1)C(=O)N[C@@H](CC(=O)O)C(=O)N[C@H](C(=O)N1CCC[C@@H]1C(N)=O)C(C)C` [896.45], the “Relative Potency” value is 1.75.

In the case of `CCCC[C@H](NC(=O)Cc1ccccc1)C(=O)N[C@@H](CC(=O)O)C(=O)N[C@@H](Cc1ccccc1)C(=O)N1CCC[C@@H]1C(N)=O` [1160.02] (PhAc-[Nle]DF[dP]-NH2), the “Relative Potency” value under setting [1] is 49.

In the case of `CC(C)C[C@H](NC(=O)Cc1ccccc1)C(=O)N[C@@H](CC(=O)O)C(=O)N[C@@H](Cc1ccc(O)cc1)C(=O)OC(C)(C)C` [1040.02] (PhAc-Leu-Asp-Tyr-OtBu), under setting [1], the “Relative Potency” value was 14.7.

As for `CC(C)C[C@H](NC(=O)Cc1ccccc1)C(=O)N[C@@H](CC(=O)O)C(=O)N[C@@H](Cc1ccccc1)C(=O)N1CCCCC1` [951.14] (PhAc-Leu-Asp-Phe-Piperidide), the “Relative Potency” value under setting [1] was found to be 239.

As to `CC(C)C[C@H](NC(=O)Cc1ccccc1)C(=O)N[C@@H](CC(=O)O)C(=O)N[C@@H](Cc1ccccc1)C(=O)N(C)CC(N)=O` [1190.04] (PhAc-LDF[Sar]-NH2), the “Relative Potency” value under setting [1] is 196.

In the case of `CC(C)C[C@H](NC(=O)CC1CCCCC1)C(=O)N[C@@H](CC(=O)O)C(=O)N[C@H](C(=O)N1CCC[C@@H]1C(N)=O)C(C)C` [896.48], the “Relative Potency” value is 3.76.

For the compound `CC(C)C[C@H](NC(=O)Cc1ccc(Br)cc1)C(=O)N[C@@H](CC(=O)O)C(=O)N[C@@H](Cc1ccccc1)C(=O)N1CCC[C@@H]1C(N)=O` [951.08] (X19-LDF[dP]-NH2), the “Relative Potency” value is given as 6.26.

As to `CC(C)C[C@@H](C(=O)N[C@@H](CC(=O)O)C(=O)N[C@@H](Cc1ccccc1)C(=O)N1CCC[C@@H]1C(N)=O)N(C)C(=O)Cc1ccccc1` [1190.07] (PhAc-[NMeL]DF[dP]-NH2), the “Relative Potency” value under setting [1] is 318.

Take `CC(C)C[C@H](NC(=O)Cc1ccccc1)C(=O)N[C@@H](CC(=O)O)C(=O)NCCN1CCOCC1` [997.03]: the “Relative Potency” value under setting [1] was determined as 12.5.

As to `CC(C)C[C@H](NC(=O)Cc1ccccc1)C(=O)N[C@@H](CC(=O)O)C(=O)NNC(=O)OC(C)(C)C` [997.13], under setting [1], the “Relative Potency” value was 1.57.

With `CC(C)C[C@H](NC(=O)Cc1ccccc1)C(=O)N[C@@H](CC(=O)O)C(=O)N[C@@H](CO)C(=O)N1CCC[C@@H]1C(N)=O` [1042.23] (PhAc-LDS[dP]-NH2), the “Relative Potency” value under setting [1] came to 33.2.
